In assay [1] the test system is α-smooth muscle actin (αSMA) positive LL29 cells. As to the kind of experiment: Inhibition of fibrotic process: αSMA in TGF-β1 treated primary human fibroblasts from IPF patients.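 As to all read-outs here: controls were TGF-β1 stimulated wells with DMSO vehicle (positive) and cells given DMSO alone (negative), cultured in F12 medium with 1% fetal bovine serum.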 Particulars: Homo sapiens, Fibroblast; for EC50: 96 h, Table 8, LL29 fibroblasts from IPF patients, TGF-β1 20 ng/mL, 4 days, dose-response 10 μM to 0.94 nM; for inhibition at 10 µM: read-out: percent value in parentheses beside EC50 >10 μM. The assay is classed as cell-based.

The next assay has as its target recombinant GSK3β kinase (Homo sapiens (Human), UniProt P49841). The assay is described as follows: GSK3β kinase assay (Ser/Thr 09 peptide Z-lyte FRET).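 Also: kinase activity read as coumarin to fluorescein emission ratio, 11-point threefold dilutions from 10 µM to 0.0003 µM in duplicate, unphosphorylated and phosphorylated peptide as 0% and 100% controls.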 Particulars: 46 μM ATP, 1 h room temperature. Type of assay: biochemical.
For assay [2], the system named is SW480 colon carcinoma cells. The assay is described as follows: Cell viability assay (CellTiter-Glo). The assay is classed as cell-based, human. Particulars: Homo sapiens; for EC50: 96 h, SW480 cells, CellTiter-Glo, four days incubation; for inhibition at 10 µM: SW480, read-out: percent inhibition at 10 μM. For orientation: Cellular ATP, detected with luciferase, serves as a proxy for viable cell number.

The test system of assay [3] is Tau phosphorylation at Ser396 (pSer396). The assay is described as follows: Tau phosphorylation assay (pSer396 ELISA / western blot) in SH-SY5Y cells.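 Also: EC50 for reduction of Tau pSer396 in lysed cells, measured by colorimetric ELISA or chemiluminescent western blot, both using the same pSer396 antibody.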 The assay is classed as cell-based, human. Particulars: Homo sapiens; SH-SY5Y cells, overnight (16-18 h) exposure; read-out: pSer396 Tau EC50. Background: An ELISA detects its analyte on a solid surface through an enzyme-linked reagent.
Experimental: Two days before treatment, cells were seeded onto 96 well plates at 5×10^4 cells/well.
Wells were visually checked for cell death or change in morphology and supernatants were tested for cytotoxicity by measurement of lactate dehydrogenase release (LDH, CytoToxOne kit, Promega) if necessary.
Cells were lysed with RIPA buffer complemented with phosphatase and protease inhibitors then lysates were spun down at 12,000 g for 10 min to remove any cellular debris. Lysates are then either directly tested for pSer396 by ELISA (Life Technology, Kit KHB7031) or loaded on NuPage Bis-Tris gels for western blot analysis. Colorimetric detection of ELISA signal is performed by Cytation3 plate reader (Biotek) and the chemiluminescence signal for HRP-linked antibodies used in western blotting is detected using a Carestream Image Station. The same pSer396 antibody is used for detection of pTau in both assays.

The subject of assay [4] is Wnt pathway (Sp5-Luc reporter, TCF/LEF binding sites) in SW480 colon carcinoma cells. The assay is described as follows: Screening assay for Wnt activity: Sp5-Luc reporter gene assay.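 As to all read-outs here: firefly luciferase luminescence read in stably transduced SW480 cells carrying the Sp5 promoter reporter with eight TCF/LEF sites, compounds given in 0.1% DMSO final.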 The assay is classed as cell-based, human. Particulars: Homo sapiens; for EC50: Sp5-Luc reporter, SW480 cells, 36 to 48 hours; for inhibition at 10 µM: SW480, read-out: percent inhibition at 10 μM. (In general: Reporter assays use an easily measured gene product as a stand-in for the process of interest.)
Experimental: The screening assay for Wnt activity is described as follows.
Following incubation, 15 μl of BriteLite Plus luminescence reagent (Perkin Elmer) was added to each well of the 384-well assay plates. The plates were placed on an orbital shaker for 2 min and then luminescence was quantified using the Envision (Perkin Elmer) plate reader.

The subject of a further assay is IL-6. The assay is described as follows: IL-6 inhibition in LPS-stimulated human peripheral blood mononuclear cells (HTRF).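 As to all read-outs here: IL-6 detected by HTRF with an XL665- and Cryptate-labelled anti-IL-6 antibody pair, samples run in duplicate, EC50 obtained from a four-parameter Levenberg-Marquardt curve fit.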 To be noted: Homo sapiens, PBMC; for EC50: Table 9, huPBMCs, LPS 50 ng/mL, 22 hours, dose-response starting from 10 μM; for inhibition at 10 µM: read-out: percent value in parentheses beside EC50 >10 μM. Type of assay: cell-based.
For assay [5], the target named is recombinant DYRK1A kinase (Homo sapiens (Human), UniProt Q13627). As to the kind of experiment: DYRK1A kinase assay (Ser/Thr 18 peptide Z-lyte FRET).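 Also: Read-out is the coumarin to fluorescein emission ratio, referenced to unphosphorylated (0%) and phosphorylated (100%) Ser/Thr 18 peptide controls, values from dose-response curves by non-linear regression.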 The assay is classed as biochemical. Particulars: 30 μM ATP, 1 h room temperature.

recombinant GSK3β kinase, sequence (P49841 whole entry): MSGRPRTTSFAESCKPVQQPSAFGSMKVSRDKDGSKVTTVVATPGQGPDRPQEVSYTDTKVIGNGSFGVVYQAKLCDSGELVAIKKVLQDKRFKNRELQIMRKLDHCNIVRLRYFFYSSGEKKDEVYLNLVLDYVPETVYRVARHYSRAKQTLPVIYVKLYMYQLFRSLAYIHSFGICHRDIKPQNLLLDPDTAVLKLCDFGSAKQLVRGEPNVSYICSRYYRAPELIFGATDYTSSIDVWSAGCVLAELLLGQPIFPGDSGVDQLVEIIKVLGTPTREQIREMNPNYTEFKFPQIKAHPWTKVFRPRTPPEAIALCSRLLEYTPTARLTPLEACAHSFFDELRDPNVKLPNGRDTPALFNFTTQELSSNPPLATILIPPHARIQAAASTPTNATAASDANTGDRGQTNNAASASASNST
Experimental for IL-6: After 22 hour incubation, a mixture of anti-IL6 XL665 and anti-IL-6 Cryptate diluted in reconstitution buffer (Catalog #62IL6PEC, Cisbio Inc., Bedford, Mass.) was added to each well. […] All samples were processed in duplicate. […] EC50 was determined using software generated by Dotmatics Limited (Windhill Bishops Stortford Herts, UK) using the Levenberg-Marquardt 4 parameter fitting procedure with finite different gradients.

Usually EC50 stands for the concentration needed to bring the measured effect to its halfway point. `CN1CCC(N2CCC(C(=O)Nc3cc4cc(-c5cnco5)ccc4cn3)CC2)CC1` [Compound 978, 1′-Methyl-N-(6-(oxazol-5-yl)isoquinolin-3-yl)-[1,4′-bipiperidine]-4-carboxamide]: the EC50 in assay [1] was 722 nM; on recombinant GSK3β kinase it was 220 nM; in assay [2], 1580 nM; in assay [3], 274 nM; in assay [4], 2220 nM; with IL-6 it was 3360 nM. Besides, the EC50 in assay [5] is 3.9 nM.

Turning to `O=C(Nc1cc2cc(-c3cnco3)ccc2cn1)[C@H]1CC[C@@H](N2CCOCC2)CC1` [Compound 979, cis-4-Morpholino-N-(6-(oxazol-5-yl)isoquinolin-3-yl)cyclohexane-1-carboxamide], the EC50 in assay [1] amounted to 1030 nM; at recombinant GSK3β kinase it was 791 nM; in assay [2], 2220 nM; in assay [3], 569 nM; in assay [4], 4090 nM; with IL-6, 4300 nM. Also, the EC50 in assay [5] turned out to be 10 nM.

`CN(CC(=O)Nc1cc2cc(-c3cnco3)ccc2cn1)C1CCC1` [Compound 980, 2-(Cyclobutyl(methyl)amino)-N-(6-(oxazol-5-yl)isoquinolin-3-yl)acetamide]: the EC50 in assay [1] was > 10000 nM; on recombinant GSK3β kinase, 389 nM; in assay [2], 5740 nM; in assay [3] it was 2100 nM; in assay [4] it was > 10000 nM; in the assay on IL-6 it was 3680 nM. Besides, the EC50 in assay [5] came out at 19.1 nM. Moreover, the inhibition at 10 µM in assay [1] turned out to be 40.3%; in assay [4] it was 40.5%.

In the case of `O=C(CN1CCCC1)Nc1cc2cc(-c3cnco3)ccc2cn1` [Compound 981, N-(6-(Oxazol-5-yl)isoquinolin-3-yl)-2-(pyrrolidin-1-yl)acetamide], the EC50 in assay [1] turned out to be 605 nM; at recombinant GSK3β kinase, 141 nM; in assay [2] it was 546 nM; in assay [3], 1100 nM; in assay [4], 1080 nM; with IL-6, 1100 nM. The EC50 in assay [5] turned out to be 13.7 nM.

For `C[C@@H]1CCCN1CC(=O)Nc1cc2cc(-c3cnco3)ccc2cn1` [Compound 982, (R)-2-(2-Methylpyrrolidin-1-yl)-N-(6-(oxazol-5-yl)isoquinolin-3-yl) acetamide], the EC50 in assay [1] turned out to be 767 nM; on recombinant GSK3β kinase it was 265 nM; in assay [2] it was 1210 nM; in assay [3], 1100 nM; in assay [4], 2710 nM; in the assay with IL-6 it was 2790 nM. In assay [5], the EC50 came out at 19.2 nM.

In the case of `CN1CCN(CC(=O)Nc2cc3cc(-c4cnco4)ccc3cn2)CC1` [Compound 983, 2-(4-Methylpiperazin-1-yl)-N-(6-(oxazol-5-yl)isoquinolin-3-yl)acetamide], the EC50 in assay [1] is 679 nM; at recombinant GSK3β kinase, 303 nM; in assay [2], 4620 nM; in assay [3], 1500 nM; in assay [4], 5530 nM; in the assay on IL-6, > 10000 nM. The EC50 in assay [5] came out at 22.3 nM. Moreover, the inhibition at 10 µM with IL-6 worked out at 9.1%.

In the case of `Cn1ncc(-c2ccc3cnc(NC(=O)C4CCOCC4)cc3c2)c1CO` [Compound 984, N-(6-(5-(Hydroxymethyl)-1-methyl-1H-pyrazol-4-yl)isoquinolin-3-yl) tetrahydro-2H-pyran-4-carboxamide], the EC50 in assay [1] stood at 1240 nM; at recombinant GSK3β kinase, 236 nM; in assay [2], 3130 nM; in assay [3] it was 2100 nM; in assay [4], 2990 nM; in the assay on IL-6, 8760 nM. Moreover, in assay [5], the EC50 was 5.5 nM.

In the case of `CN1CCC(C(=O)Nc2cc3cc(-c4cnn(C)c4CO)ccc3cn2)CC1` [Compound 985, N-(6-(5-(Hydroxymethyl)-1-methyl-1H-pyrazol-4-yl)isoquinolin-3-yl)-1-methylpiperidine-4-carboxamide], the EC50 in assay [1] was > 10000 nM; on recombinant GSK3β kinase it was 283 nM; in assay [2], 1720 nM; in assay [3], 3200 nM; in assay [4], 1160 nM; in the assay on IL-6, 3890 nM. The EC50 in assay [5] was determined as 4.1 nM. The inhibition at 10 µM in assay [1] amounted to 38%.

`O=C(Nc1cc2cc(-c3cnc4n3CCNC4)ccc2cn1)C1CC(F)(F)C1` [Compound 986, 3,3-Difluoro-N-(6-(5,6,7,8-tetrahydroimidazo[1,2-a]pyrazin-3-yl)isoquinolin-3-yl)cyclobutane-1-carboxamide]: the EC50 in assay [1] is 158 nM; at recombinant GSK3β kinase it was 21 nM; in assay [2], 3300 nM; in assay [3] it was 387 nM; in assay [4], 1380 nM; with IL-6 it was > 10000 nM. Besides, the EC50 in assay [5] was determined as 11 nM. The inhibition at 10 µM with IL-6 stood at 13.4%.

With `O=C(Nc1cc2cc(-c3cnc4n3CCNC4)ccc2cn1)[C@H]1CCCN1` [Compound 987, (R)—N-(6-(5,6,7,8-Tetrahydroimidazo[1,2-a]pyrazin-3-yl)isoquinolin-3-yl) pyrrolidine-2-carboxamide], the half-maximal effective concentration (EC50) in assay [1] was > 10000 nM; at recombinant GSK3β kinase, 2320 nM; in assay [2], > 10000 nM; in assay [3] it was > 10000 nM; in assay [4], > 10000 nM; with IL-6, > 10000 nM. Besides, the EC50 in assay [5] was found to be 42.8 nM. The inhibition at 10 µM is 42% in assay [1], 10.6% in assay [2], 10.7% in assay [4] and 6.5% in the assay with IL-6.

In the case of `O=C(Nc1cc2cc(-c3cnc4n3CCNC4)ccc2cn1)[C@@H]1CCCNC1` [Compound 988, (R)—N-(6-(5,6,7,8-Tetrahydroimidazo[1,2-a]pyrazin-3-yl)isoquinolin-3-yl) piperidine-3-carboxamide], the EC50 is > 10000 nM in assay [1]; 1090 nM on recombinant GSK3β kinase; > 10000 nM in assay [2]; > 10000 nM in assay [3]; > 10000 nM in assay [4]; > 10000 nM in the assay on IL-6. For the same molecule, the EC50 in assay [5] is 24.9 nM. Moreover, the inhibition at 10 µM in assay [1] came out at 46.5%; in assay [2], 18%; in assay [4], 11.1%; with IL-6 it was 8.8%.

Turning to `CN1CCC(C(=O)Nc2cc3cc(-c4cnc5n4CCNC5)ccc3cn2)CC1` [Compound 989, 1-Methyl-N-(6-(5,6,7,8-tetrahydroimidazo[1,2-a]pyrazin-3-yl)isoquinolin-3-yl)piperidine-4-carboxamide], the EC50 in assay [1] is 4420 nM; on recombinant GSK3β kinase, 298 nM; in assay [2] it was > 10000 nM; in assay [3] it was > 10000 nM; in assay [4], 4320 nM; in the assay on IL-6, > 10000 nM. In assay [5], the EC50 came to 16.2 nM. Further, the figures for the inhibition at 10 µM (in assay [2]; in the assay with IL-6) were 36.4% and 12.5%, respectively.

With `O=C(Nc1cc2cc(-c3cnc4n3CCNC4)ccc2cn1)C1CCN(CC2(C(F)(F)F)CC2)CC1` [Compound 990, N-(6-(5,6,7,8-Tetrahydroimidazo[1,2-a]pyrazin-3-yl)isoquinolin-3-yl)-1-((1-(trifluoromethyl)cyclopropyl)methyl)piperidine-4-carboxamide], the EC50 is 782 nM in assay [1]; 100 nM on recombinant GSK3β kinase; 3550 nM in assay [2]; 1800 nM in assay [3]; 2860 nM in assay [4]; > 10000 nM in the assay with IL-6. Also, the EC50 in assay [5] was 21.3 nM. Besides, in the assay with IL-6, the inhibition at 10 µM turned out to be 0%.

Turning to `O=C(Nc1cc2cc(-c3cnc4n3CCNC4)ccc2cn1)C1CCN(C(=O)c2ccccc2)CC1` [Compound 991, 1-Benzoyl-N-(6-(5,6,7,8-tetrahydroimidazo[1,2-a]pyrazin-3-yl)isoquinolin-3-yl)piperidine-4-carboxamide], the EC50 is 2680 nM in assay [1]; 29 nM on recombinant GSK3β kinase; 3960 nM in assay [2]; 10000 nM in assay [3]; 1700 nM in assay [4]; 3240 nM in the assay with IL-6. Further, in assay [5], the EC50 came to 3.3 nM.

In the case of `Cn1ncc(-c2ccc3cnc(NC(=O)C4CC5(C4)CN(C(=O)OC(C)(C)C)C5)cc3c2)c1CN1CCCCC1` [Compound 992, tert-Butyl 6-((6-(1-methyl-5-(piperidin-1-ylmethyl)-1H-pyrazol-4-yl)isoquinolin-3-yl)carbamoyl)-2-azaspiro[3.3]heptane-2-carboxylate], the EC50 in assay [1] is 2970 nM; at recombinant GSK3β kinase it was 14 nM; in assay [2], 5600 nM; in assay [3], 350 nM; in assay [4], 3210 nM; with IL-6, > 10000 nM. Besides, in assay [5], the EC50 turned out to be 25.3 nM. Also, the inhibition at 10 µM in the assay with IL-6 is 2.6%.

In the case of `Cc1ncc(-c2ccc3cnc(NC(=O)CN4CCCC4)cc3c2)s1` [Compound 993, N-(6-(2-Methylthiazol-5-yl)isoquinolin-3-yl)-2-(pyrrolidin-1-yl)acetamide], the EC50 in assay [1] worked out at 1490 nM; at recombinant GSK3β kinase, 87 nM; in assay [2] it was 6580 nM; in assay [3] it was 702 nM; in assay [4] it was 7970 nM; in the assay with IL-6 it was 8840 nM. The EC50 in assay [5] amounted to 14.7 nM.

For the origin of these results see patent publication US10287267B2, “Isoquinolin-3-yl carboxamides and preparation and use thereof” (Samumed, LLC, priority 2016, dated 2019).
